In patent US12617779B2, “Self degradation-type CDK9 inhibitor prodrug and liposome encapsulating same” (Sumitomo Pharma Co., Ltd., priority 2021, dated 2026):
Structures can show the parent of a compound that is named as a salt.

Assays:
[1] = Stability evaluation of liposome formulation under storage conditions (Experimental Example 5); format: physicochemical; conditions: for Alvocidib content % in liposome formulation: liposome formulation stored at 5° C.; for Change of Alvocidib content in liposome formulation: 5° C.
Experimental: For Example 1, Example 2, Example 5, Example 6, Example 7, Example 8, Comparative Example 7 and Comparative Example 9, the storage stability of liposome formulation was evaluated by the following method.
For the liposome formulations of Example 1, Example 2, Example 5, Example 6, Example 7, Example 8, Comparative Example 7, and Comparative Example 9, the liposome outer solution was replaced with 10% sucrose solution or 10 mM tartrate buffer solution/10% sucrose solution (pH 4) using Sephadex G-25 column (PD-10, manufactured by GE Healthcare) or a dialysis cassette (Slide-A-Lyzer G2 Dialysis Cassettes 20K MWCO, manufactured by Thermo Scientific) to remove unencapsulated compound. The liposome formulation was filtered through a 0.22 μm membrane filter, and stored at 5° C. After 0 to 18 months, the Alvocidib content in the liposome formulations of Example 1, Example 2, Example 5, Example 6, Example 7, Example 8, Comparative Example 7 and Comparative Example 9 was determined by HPLC.
The HPLC measurement conditions are as follows.

[2] = Evaluation of conversion rate to active form in BALB/c mouse plasma (Experimental Example 3); format: in vitro ADME; conditions: 0.2 μmol/L; for Conversion to Alvocidib in BALB/c mouse plasma: Examples up to 60 minutes, Comparative Examples up to 120 minutes
How it was run: (§1)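 Test compound at 0.2 μmol/L was incubated at 37° C in human or BALB/c mouse plasma and sampled at 0, 30 and 60 min or at 0, 60 and 120 min. Compound and Alvocidib were quantified by LC-MS/MS peak area. Attrition is relative to 0 min; conversion is relative to 0.2 μmol/L Alvocidib reference.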

[3] = Evaluation of conversion rate to active form in human plasma (Experimental Example 3); format: in vitro ADME; conditions: 0.2 μmol/L; for Conversion to Alvocidib in human plasma: Examples up to 60 minutes, Comparative Examples up to 120 minutes
How it was run: as §1

[4] = Pharmacokinetic test, intravenous solution and liposome formulations in mice (Experimental Example 6); format: in vivo; conditions: female BALB/c mice
Experimental: This was used as a solution formulation.
This was used as a liposome formulation.
Hydrogenated soybean phosphatidylcholine (COATSOME NC-21E, manufactured by NOF CORPORATION, 3.238 g), cholesterol (manufactured by Sigma, 1.160 g) and 1,2-disteroyl-rac-glycero-3-methylpolyoxyethylen 2000 (SUNBRIGHT GS-020, manufactured by NOF CORPORATION, 0.983 g) were dissolved in tert-butyl alcohol (300 mL) warmed to 65° C. The solution was placed in an eggplant flask and frozen in a dry ice-acetone bath, and then the tert-butyl alcohol was removed by evaporation under reduced pressure to give a lipid mixture.
To the above lipid mixture was added to a 250 mM ammonium sulfate solution (100 mL), and the mixture was warmed to 65° C., and dispersed by a homogenizer (ULTRA-TURRAX, manufactured by IKA) to give a crude liposome dispersion. […] The solution was filtered through a 0.22 μm membrane filter to adjust the total lipid concentration to 75 mM (75 μmol/mL). […] The solution was adjusted to pH 5 to 6 with 1 mol/L aqueous sodium hydroxide solution, warmed in a 65° C. water bath for 3 minutes, and ice-cooled. The liposome outer solution was replaced with 10 mM tartrate buffer solution/10% sucrose solution (pH 4) using a dialysis cassette (Slide-A-Lyzer G2 Dialysis Cassettes 20K MWCO, manufactured by Thermo Scientific), followed by filtration through a 0.22 μm membrane filter to adjust the concentration.
The solution formulation or liposome formulation was instantly administered intravenously to 7-week-old female BALB/c mice, and the blood was collected over time from the jugular vein without anesthesia up to 24 hours after administration for the solution formulation administration group and up to 72 hours after administration for the liposome formulation administration group. […] The plasma sample was centrifuged, and the concentrations of the test compound and Alvocidib in the obtained supernatant were determined by LC-MS/MS.

Row | Compound | Blood retention of liposome formulation compared with the corresponding solution formulation [4] | Conversion to Alvocidib in BALB/c mouse plasma ([2]; 37° C.) | Residual rate (%) of test compound ([2]; Mouse plasma, 37° C., 0 min) | Residual rate (%) of test compound ([2]; Mouse plasma, 37° C., 30 min) | Residual rate (%) of test compound ([2]; Mouse plasma, 37° C., 60 min) | Residual rate (%) of test compound ([3]; Human plasma, 37° C., 0 min) | Residual rate (%) of test compound ([3]; Human plasma, 37° C., 30 min) | Residual rate (%) of test compound ([3]; Human plasma, 37° C., 60 min) | Conversion to Alvocidib in human plasma ([3]; 37° C.) | other results
1 | C[C@H](N)C(=O)O[C@@H]1CN(C)CC[C@@H]1c1c(O)cc(O)c2c(=O)cc(-c3ccccc3Cl)oc12 [Comparative Example 7, reference compound] | – | – | – | – | – | – | – | – | – | Alvocidib content % in liposome formulation ([1]; 0 month): 0.56%; Alvocidib content % in liposome formulation ([1]; 7 months): 23.2%; Change of Alvocidib content in liposome formulation ([1]; at 6 to 7 months): significant increase; Production rate (%) of Alvocidib ([2]; BALB/c, mouse, 0 min): 1%; Residual rate (%) of test compound ([2]; BALB/c, mouse, 0 min): 100%; Production rate (%) of Alvocidib ([2]; BALB/c, mouse, 60 min): 64%; Residual rate (%) of test compound ([2]; BALB/c, mouse, 60 min): 25%; Production rate (%) of Alvocidib ([2]; BALB/c, mouse, 120 min): 79%; Residual rate (%) of test compound ([2]; BALB/c, mouse, 120 min): 10%; Production rate (%) of Alvocidib ([3]; human, 0 min): 6%; Residual rate (%) of test compound ([3]; human, 0 min): 100%; Production rate (%) of Alvocidib ([3]; human, 60 min): 26%; Residual rate (%) of test compound ([3]; human, 60 min): 77%; Production rate (%) of Alvocidib ([3]; human, 120 min): 32%; Residual rate (%) of test compound ([3]; human, 120 min): 65%
2 | CN1CC[C@H](c2c(O)cc(O)c3c(=O)cc(-c4ccccc4Cl)oc23)[C@H](OC(=O)[C@@H](N)CO)C1 [Comparative Example 9, reference compound] | – | – | – | – | – | – | – | – | – | Alvocidib content % in liposome formulation ([1]; 0 month): 1.17%; Alvocidib content % in liposome formulation ([1]; 6 months): 27.2%; Change of Alvocidib content in liposome formulation ([1]; at 6 to 7 months): significant increase; Production rate (%) of Alvocidib ([2]; BALB/c, mouse, 0 min): 3%; Residual rate (%) of test compound ([2]; BALB/c, mouse, 0 min): 100%; Production rate (%) of Alvocidib ([2]; BALB/c, mouse, 60 min): 33%; Residual rate (%) of test compound ([2]; BALB/c, mouse, 60 min): 70%; Production rate (%) of Alvocidib ([2]; BALB/c, mouse, 120 min): 43%; Residual rate (%) of test compound ([2]; BALB/c, mouse, 120 min): 54%; Production rate (%) of Alvocidib ([3]; human, 0 min): 3%; Residual rate (%) of test compound ([3]; human, 0 min): 100%; Production rate (%) of Alvocidib ([3]; human, 60 min): 18%; Residual rate (%) of test compound ([3]; human, 60 min): 85%; Production rate (%) of Alvocidib ([3]; human, 120 min): 25%; Residual rate (%) of test compound ([3]; human, 120 min): 80%
3 | CCN(C[C@@H]1CCCCN1)C(=O)Oc1cc(O)c2c(=O)cc(-c3ccccc3Cl)oc2c1[C@H]1CCN(C)C[C@H]1O [Example 1, 2-(2-chlorophenyl)-5-hydroxy-8-[(3S,4R)-3-hydroxy-1-methylpiperidin-4-yl]-4-oxo-4H-1-benzopyran-7-yl ethyl{[(2S)-piperidin-2-yl]methyl}carbamate ditrifluoroacetate] | higher blood retention | proceeded rapidly | 100% | 24% | 3% | 100% | 6% | 0% | proceeded rapidly | –
4 | CCN(C[C@H]1CCCCN1)C(=O)Oc1cc(O)c2c(=O)cc(-c3ccccc3Cl)oc2c1[C@H]1CCN(C)C[C@H]1O [Example 2, 2-(2-chlorophenyl)-5-hydroxy-8-[(3S,4R)-3-hydroxy-1-methylpiperidin-4-yl]-4-oxo-4H-1-benzopyran-7-yl ethyl{[(2R)-piperidin-2-yl]methyl}carbamate] | higher blood retention | proceeded rapidly | 100% | 25% | 4% | 100% | 4% | 2% | proceeded rapidly | –
5 | CN1CC[C@H](c2c(OC(=O)N(C)C[C@@H]3CCCCN3)cc(O)c3c(=O)cc(-c4ccccc4Cl)oc23)[C@H](O)C1 [Example 3, 2-(2-chlorophenyl)-5-hydroxy-8-[(3S,4R)-3-hydroxy-1-methylpiperidin-4-yl]-4-oxo-4H-1-benzopyran-7-yl methyl{[(2S)-piperidin-2-yl]methyl}carbamate] | higher blood retention | proceeded rapidly | 100% | 8% | 0% | 100% | 3% | 0% | proceeded rapidly | –
6 | CN1CC[C@H](c2c(OC(=O)N(C)C[C@H]3CCCCN3)cc(O)c3c(=O)cc(-c4ccccc4Cl)oc23)[C@H](O)C1 [Example 4, 2-(2-chlorophenyl)-5-hydroxy-8-[(3S,4R)-3-hydroxy-1-methylpiperidin-4-yl]-4-oxo-4H-1-benzopyran-7-yl methyl{[(2R)-piperidin-2-yl]methyl}carbamate] | higher blood retention | proceeded rapidly | 100% | 5% | 3% | 100% | 4% | 4% | proceeded rapidly | –
7 | CCCN(C[C@@H]1CCCCN1)C(=O)Oc1cc(O)c2c(=O)cc(-c3ccccc3Cl)oc2c1[C@H]1CCN(C)C[C@H]1O [Example 5, 2-(2-chlorophenyl)-5-hydroxy-8-[(3S,4R)-3-hydroxy-1-methylpiperidin-4-yl]-4-oxo-4H-1-benzopyran-7-yl {[(2S)-piperidin-2-yl]methyl}propylcarbamate] | higher blood retention | proceeded rapidly | 100% | 36% | 8% | 100% | 1% | 0% | proceeded rapidly | –
8 | CCN(CC1CCCCN1)C(=O)Oc1cc(O)c2c(=O)cc(-c3ccccc3Cl)oc2c1[C@H]1CCN(C)C[C@H]1O (stereo partly drawn) [Example 7, 2-(2-chlorophenyl)-5-hydroxy-8-[(3S,4R)-3-hydroxy-1-methylpiperidin-4-yl]-4-oxo-4H-1-benzopyran-7-yl ethyl[(piperidin-2-yl)methyl]carbamate dihydrochloride] | – | – | – | – | – | – | – | – | – | Change of Alvocidib content in liposome formulation ([1]; after 15 months): hardly increased
9 | CN1CC[C@H](c2c(OC(=O)N(C)CC3CCCCN3)cc(O)c3c(=O)cc(-c4ccccc4Cl)oc23)[C@H](O)C1 (stereo partly drawn) [Example 8, 2-(2-chlorophenyl)-5-hydroxy-8-[(3S,4R)-3-hydroxy-1-methylpiperidin-4-yl]-4-oxo-4H-1-benzopyran-7-yl methyl[(piperidin-2-yl)methyl]carbamate] | – | – | – | – | – | – | – | – | – | Change of Alvocidib content in liposome formulation ([1]; after 18 months): hardly increased
10 | CN1CC[C@H](c2c(OC(=O)N(CCF)CC3CCCCN3)cc(O)c3c(=O)cc(-c4ccccc4Cl)oc23)[C@H](O)C1 (stereo partly drawn) [Example 11, 2-(2-chlorophenyl)-5-hydroxy-8-[(3S,4R)-3-hydroxy-1-methylpiperidin-4-yl]-4-oxo-4H-1-benzopyran-7-yl (2-fluoroethyl) [(piperidin-2-yl)methyl]carbamate] | higher blood retention | – | – | – | – | – | – | – | – | –
